# Data reported in patent US5420145A, “Carboxylic acid derivative” (Shudo; Koichi, priority 1993, dated 1995).
# Test system: promyelocytic leukemia cell-line HL-60
# Assay: Differentiation Inducing Activity on HL-60 (differentiation to granulocyte; morphological observation of nucleus and NBT reduction)
# Format: cell-based
# Details: Homo sapiens, HL-60, read-out: ED50 (concentration which induced differentiation in the half of the cells)
# Procedure: The activities of the compounds of the above-described examples on differentiation were evaluated using promyelocytic leukemia cell-line HL-60 according to the method described in Japanese Patent Unexamined Publication No. 61-76440. The differentiation to granulocyte was evaluated by morphological observation of nucleus and measurement of ability to reduce nitroblue-tetrazolium (NBT). These are well known procedures providing adequate results in the evaluation of the cell differentiation-inducing activity of retinoids. Retinoic acid was used as the reference compound, and the concentrations which induced differentiation in the half of the cells were calculated.
row,Compound,EC50 [nM]
1,"CC1=C(/C=C/C(C)=C/C=C/C(C)=C/C(=O)O)C(C)(C)CCC1 [Retinoic Acid, Retinoic acid, reference compound]",2.4

# Same assay, conditions: Homo sapiens; HL-60 cells; differentiation to granulocyte; nucleus morphology and nitroblue-tetrazolium (NBT) reduction; read-out: ED50 (concentration which induced differentiation in the half of the cells)
row,EC50 [nM],Compound
1,40,"CC1(C)CCC(C)(C)c2cc(NC(=O)c3ccc(C(=O)O)nc3)ccc21 [Example 1, 5-(5,6,7,8-Tetrahydro-5,5,8,8-tetramethyl-2-naphthalenyl-carbamoyl)pyridine-2-carboxylic acid]"
2,0.41,"CC1(C)CCC(C)(C)c2cc(NC(=O)c3ccc(C(=O)O)cc3O)ccc21 [Example 3, 3-Hydroxy-4-(5,6,7,8-tetrahydro-5,5,8,8-tetramethyl-2-naphthalenylcarbamoyl)benzoic acid]"
3,0.22,"CC1(C)CCC(C)(C)c2cc(NC(=O)c3ccc(C(=O)O)cn3)ccc21 [Example 2, 6-(5,6,7,8-Tetrahydro-5,5,8,8-tetramethyl-2naphthalenylcarbamoyl) pyridine-3-carboxylic acid]"
4,25,"CC(C)c1ccc(NC(=O)c2ccc(C(=O)O)cn2)cc1C(C)C [Example 5, 6-(3,4-Di-isopropylphenylcarbamoyl)pyridine-3-carboxylic acid]"
5,6.5,"CC1(C)CCC(C)(C)c2cc(C(=O)Nc3ccc(C(=O)O)cc3O)ccc21 [Example 4, 3-Hydroxy-4-(5,6,7,8-tetrahydro-5,5,8,8-tetramethyl-2-naphthalenylcarboxamide)benzoic acid]"
